Reference: the NIST ThermoML archive (doi:10.1021/je400733m)
Numbers after ± are expanded uncertainties.

Details: for vapor or sublimation pressure: Liquid; for mass density: Gas, isochoric method

F [hydrogen fluoride]
Details	vapor or sublimation pressure [kPa]
293.12 K	102.1 ± 4
303.13 K	145.3 ± 4
313.16 K	202.1 ± 4.1
323.08 K	274.7 ± 4.2
333.13 K	368.7 ± 4.4
343.1 K	487.1 ± 4.7
353.14 K	636.4 ± 5.1
363.17 K	822.2 ± 5.7
373.14 K	1048.5 ± 6.4
383.21 K	1327.1 ± 7.3
393.11 K	1659.3 ± 8.4
403.1 K	2060.2 ± 9.7
413.14 K	2541.3 ± 11
423.14 K	3111.5 ± 13
433.06 K	3778.1 ± 15
443.01 K	4566 ± 18
454.15 K	5611.6 ± 19

Details	mass density [kg/m3]
293.15 K, 27.7 kPa	0.232 ± 0.08
293.15 K, 29 kPa	0.245 ± 0.082
293.15 K, 31.8 kPa	0.282 ± 0.086
293.15 K, 34.5 kPa	0.32 ± 0.089
293.15 K, 37.2 kPa	0.36 ± 0.082
293.15 K, 41.5 kPa	0.438 ± 0.1
293.15 K, 55.5 kPa	0.802 ± 0.13
293.15 K, 69.3 kPa	1.311 ± 0.16
293.15 K, 83.3 kPa	1.954 ± 0.18
293.15 K, 98.6 kPa	2.86 ± 0.2
303.15 K, 26.4 kPa	0.212 ± 0.043
303.15 K, 29.4 kPa	0.239 ± 0.046
303.15 K, 34.2 kPa	0.283 ± 0.045
303.15 K, 38 kPa	0.32 ± 0.053
303.15 K, 41.5 kPa	0.356 ± 0.052
303.15 K, 45.1 kPa	0.395 ± 0.052
303.15 K, 52.7 kPa	0.491 ± 0.063
303.15 K, 64.8 kPa	0.694 ± 0.082
303.15 K, 78 kPa	0.999 ± 0.1
303.15 K, 90 kPa	1.359 ± 0.13
303.15 K, 102.6 kPa	1.818 ± 0.15
303.15 K, 114.8 kPa	2.327 ± 0.18
303.15 K, 126.7 kPa	2.883 ± 0.19
303.15 K, 141.6 kPa	3.802 ± 0.22
313.15 K, 29.3 kPa	0.227 ± 0.037
313.15 K, 35.9 kPa	0.28 ± 0.038
313.15 K, 36.4 kPa	0.28 ± 0.038
313.15 K, 39.6 kPa	0.307 ± 0.039
313.15 K, 41.4 kPa	0.326 ± 0.039
313.15 K, 42.5 kPa	0.331 ± 0.039
313.15 K, 48.3 kPa	0.385 ± 0.04
313.15 K, 53.3 kPa	0.426 ± 0.041
313.15 K, 55.1 kPa	0.447 ± 0.041
313.15 K, 57 kPa	0.461 ± 0.044
313.15 K, 62.1 kPa	0.51 ± 0.045
313.15 K, 68.9 kPa	0.59 ± 0.047
313.15 K, 74 kPa	0.644 ± 0.049
313.15 K, 82.8 kPa	0.767 ± 0.063
313.15 K, 90.7 kPa	0.883 ± 0.069
313.15 K, 96.6 kPa	0.992 ± 0.082
313.15 K, 109.1 kPa	1.246 ± 0.089
313.15 K, 110.3 kPa	1.285 ± 0.1
313.15 K, 124.3 kPa	1.653 ± 0.11
313.15 K, 129.3 kPa	1.787 ± 0.11
313.15 K, 138 kPa	2.078 ± 0.14
313.15 K, 148 kPa	2.417 ± 0.14
313.15 K, 152 kPa	2.579 ± 0.15
313.15 K, 165.7 kPa	3.118 ± 0.14
313.15 K, 165.8 kPa	3.133 ± 0.14
313.15 K, 180.3 kPa	3.777 ± 0.16
313.15 K, 180.5 kPa	3.797 ± 0.16
323.15 K, 55 kPa	0.422 ± 0.039
323.15 K, 100.9 kPa	0.842 ± 0.043
323.15 K, 117.9 kPa	1.05 ± 0.062
323.15 K, 156.9 kPa	1.731 ± 0.082
323.15 K, 181.4 kPa	2.343 ± 0.11
323.15 K, 204.5 kPa	3.061 ± 0.12
323.15 K, 228.7 kPa	3.949 ± 0.13
333.15 K, 29.2 kPa	0.218 ± 0.035
333.15 K, 99.9 kPa	0.759 ± 0.033
333.15 K, 112.6 kPa	0.863 ± 0.041
333.15 K, 142.2 kPa	1.147 ± 0.048
333.15 K, 163.7 kPa	1.386 ± 0.042
333.15 K, 180 kPa	1.61 ± 0.035
333.15 K, 199.2 kPa	1.904 ± 0.085
333.15 K, 222.8 kPa	2.36 ± 0.1
333.15 K, 234.8 kPa	2.612 ± 0.093
333.15 K, 246.2 kPa	2.902 ± 0.088
333.15 K, 270.8 kPa	3.552 ± 0.12
333.15 K, 276.4 kPa	3.753 ± 0.12
333.15 K, 305.8 kPa	4.693 ± 0.14
333.15 K, 317.3 kPa	5.162 ± 0.16
333.15 K, 341.5 kPa	6.088 ± 0.15
333.15 K, 343.5 kPa	6.229 ± 0.16
343.15 K, 24.6 kPa	0.179 ± 0.034
343.15 K, 67.3 kPa	0.488 ± 0.035
343.15 K, 141.7 kPa	1.05 ± 0.04
343.15 K, 244.7 kPa	2.094 ± 0.051
343.15 K, 289.6 kPa	2.791 ± 0.071
343.15 K, 340.6 kPa	3.856 ± 0.097
343.15 K, 375.4 kPa	4.777 ± 0.12
343.15 K, 414.8 kPa	6.034 ± 0.14
343.15 K, 455.3 kPa	7.553 ± 0.15
353.15 K, 50.5 kPa	0.352 ± 0.034
353.15 K, 118.5 kPa	0.833 ± 0.034
353.15 K, 189 kPa	1.359 ± 0.037
353.15 K, 279.3 kPa	2.154 ± 0.043
353.15 K, 334.2 kPa	2.782 ± 0.057
353.15 K, 391.1 kPa	3.617 ± 0.063
353.15 K, 450.1 kPa	4.75 ± 0.091
353.15 K, 509 kPa	6.216 ± 0.12
353.15 K, 583.5 kPa	8.604 ± 0.14
363.15 K, 78.7 kPa	0.523 ± 0.033
363.15 K, 151.2 kPa	1.024 ± 0.034
363.15 K, 268.6 kPa	1.886 ± 0.036
363.15 K, 349.7 kPa	2.574 ± 0.042
363.15 K, 435.2 kPa	3.463 ± 0.053
363.15 K, 519.5 kPa	4.617 ± 0.071
363.15 K, 610.3 kPa	6.318 ± 0.1
363.15 K, 704.7 kPa	8.73 ± 0.12
363.15 K, 792.4 kPa	11.696 ± 0.15
373.15 K, 59.5 kPa	0.389 ± 0.032
373.15 K, 135.1 kPa	0.89 ± 0.033
373.15 K, 249.7 kPa	1.674 ± 0.034
373.15 K, 360.6 kPa	2.495 ± 0.036
373.15 K, 444.9 kPa	3.191 ± 0.04
373.15 K, 555.7 kPa	4.277 ± 0.047
373.15 K, 661.8 kPa	5.611 ± 0.07
373.15 K, 768.8 kPa	7.405 ± 0.098
373.15 K, 872.6 kPa	9.733 ± 0.12
373.15 K, 971.7 kPa	12.608 ± 0.13
383.15 K, 109.3 kPa	0.69 ± 0.032
383.15 K, 256.8 kPa	1.656 ± 0.033
383.15 K, 388.4 kPa	2.569 ± 0.034
383.15 K, 518.3 kPa	3.557 ± 0.038
383.15 K, 666.4 kPa	4.865 ± 0.044
383.15 K, 794.6 kPa	6.263 ± 0.057
383.15 K, 928.9 kPa	8.187 ± 0.074
383.15 K, 1067 kPa	10.825 ± 0.097
383.15 K, 1201 kPa	14.245 ± 0.12
393.15 K, 172.3 kPa	1.108 ± 0.032
393.15 K, 337.7 kPa	2.178 ± 0.032
393.15 K, 505.5 kPa	3.335 ± 0.034
393.15 K, 674.9 kPa	4.611 ± 0.037
393.15 K, 840.7 kPa	6.052 ± 0.042
393.15 K, 1013 kPa	7.764 ± 0.062
393.15 K, 1175 kPa	10.132 ± 0.08
393.15 K, 1344 kPa	13.239 ± 0.096
393.15 K, 1498 kPa	17.048 ± 0.13
403.15 K, 240.6 kPa	1.492 ± 0.032
403.15 K, 449.3 kPa	2.829 ± 0.032
403.15 K, 652.2 kPa	4.216 ± 0.034
403.15 K, 862.3 kPa	5.791 ± 0.038
403.15 K, 1069 kPa	7.588 ± 0.044
403.15 K, 1278 kPa	9.802 ± 0.055
403.15 K, 1491 kPa	12.74 ± 0.072
403.15 K, 1709 kPa	16.83 ± 0.12
403.15 K, 1897 kPa	21.668 ± 0.16
413.15 K, 222.3 kPa	1.32 ± 0.031
413.15 K, 371.4 kPa	2.232 ± 0.031
413.15 K, 508.9 kPa	3.095 ± 0.031
413.15 K, 683.2 kPa	4.229 ± 0.033
413.15 K, 883.6 kPa	5.621 ± 0.034
413.15 K, 1059 kPa	6.93 ± 0.037
413.15 K, 1234 kPa	8.38 ± 0.044
413.15 K, 1399 kPa	9.914 ± 0.051
413.15 K, 1557 kPa	11.607 ± 0.049
413.15 K, 1728 kPa	13.746 ± 0.074
413.15 K, 2034 kPa	18.831 ± 0.082
413.15 K, 2223 kPa	23.108 ± 0.12
433.15 K, 309.8 kPa	1.785 ± 0.03
433.15 K, 698.6 kPa	4.1 ± 0.031
433.15 K, 1068.9 kPa	6.452 ± 0.033
433.15 K, 1452 kPa	9.113 ± 0.036
433.15 K, 1847 kPa	12.286 ± 0.042
433.15 K, 2258 kPa	16.303 ± 0.056
433.15 K, 2635 kPa	21.034 ± 0.074
433.15 K, 3001 kPa	27.275 ± 0.12
433.15 K, 3365 kPa	36.362 ± 0.16
433.15 K, 3703 kPa	50.976 ± 0.26
453.15 K, 476.5 kPa	2.703 ± 0.03
453.15 K, 1014 kPa	5.793 ± 0.031
453.15 K, 1550 kPa	9.121 ± 0.033
453.15 K, 2081 kPa	12.797 ± 0.037
453.15 K, 2621 kPa	17.077 ± 0.048
453.15 K, 3133 kPa	21.99 ± 0.078
453.15 K, 3651 kPa	28.309 ± 0.22
453.15 K, 4173 kPa	36.974 ± 0.14
453.15 K, 4738 kPa	51.158 ± 0.29
453.15 K, 5189 kPa	73.046 ± 0.31
473.15 K, 398.6 kPa	2.061 ± 0.029
473.15 K, 719.1 kPa	3.785 ± 0.029
473.15 K, 1113 kPa	5.969 ± 0.03
473.15 K, 1557 kPa	8.541 ± 0.031
473.15 K, 1986 kPa	11.159 ± 0.033
473.15 K, 2275 kPa	13.033 ± 0.034
473.15 K, 2590 kPa	15.167 ± 0.038
473.15 K, 2992 kPa	18.107 ± 0.045
473.15 K, 3473 kPa	22.184 ± 0.059
473.15 K, 4349 kPa	30.552 ± 0.089
473.15 K, 4995 kPa	38.609 ± 0.31
473.15 K, 5640 kPa	49.429 ± 0.33
473.15 K, 6393 kPa	68.899 ± 0.21
473.15 K, 7041 kPa	98.187 ± 0.3
